# Experimental data as given in ChEMBL document CHEMBL1137164, “Antioxidative activities of novel diphenylalkyl piperazine derivatives with high affinities for the dopamine transporter” (Bioorg Med Chem Lett, 2004).
# Organism: Canis familiaris
# Test: inhibitory concentration against auto-oxidative lipid peroxidation in canine brain homogenate
row,SMILES,IC50 [µM]
1,OC(CNc1ccccc1)CN1CCN(CC(c2ccc(F)cc2)c2ccc(F)cc2)CC1 (stereo unspecified),11
2,Oc1ccc(NCC(O)CN2CCN(CCCC(c3ccc(F)cc3)c3ccc(F)cc3)CC2)cc1 (stereo unspecified),0.32
3,OC(CNc1ccccc1)CN1CCN(CCCCC(c2ccc(F)cc2)c2ccc(F)cc2)CC1 (stereo unspecified),8.3
4,OC(CNc1ccc(Cl)cc1)CN1CCN(CCCC(c2ccc(F)cc2)c2ccc(F)cc2)CC1 (stereo unspecified),8.5
5,CN(C)c1ccc(NCC(O)CN2CCN(CCCC(c3ccc(F)cc3)c3ccc(F)cc3)CC2)cc1 (stereo unspecified),2.2
6,OC(CNc1ccccc1)CN1CCN(C(c2ccc(F)cc2)c2ccc(F)cc2)CC1 (stereo unspecified),6.9
7,Nc1ccc(NCC(O)CN2CCN(CCCC(c3ccc(F)cc3)c3ccc(F)cc3)CC2)cc1 (stereo unspecified),2.7
8,OC(CNc1ccccc1)CN1CCN(CCC(c2ccc(F)cc2)c2ccc(F)cc2)CC1 (stereo unspecified),11
9,OC(CNc1ccc(Cl)c(Cl)c1)CN1CCN(CCCC(c2ccc(F)cc2)c2ccc(F)cc2)CC1 (stereo unspecified),23

# Continued by falling IC50, values first:
row,IC50 [µM],SMILES
1,182,O=[N+]([O-])c1ccc(NCC(O)CN2CCN(CCCC(c3ccc(F)cc3)c3ccc(F)cc3)CC2)cc1 (stereo unspecified)
2,6.5,OC(CNc1ccccc1)CN1CCN(CCCC(c2ccc(F)cc2)c2ccc(F)cc2)CC1 (stereo unspecified)
3,6.1,Cc1ccc(NCC(O)CN2CCN(CCCC(c3ccc(F)cc3)c3ccc(F)cc3)CC2)cc1 (stereo unspecified)
4,2.8,CC(C)(C)c1cc(NCC(O)CN2CCN(CCCC(c3ccc(F)cc3)c3ccc(F)cc3)CC2)cc(C(C)(C)C)c1O (stereo unspecified)
5,1.6,COc1ccc(NCC(O)CN2CCN(CCCC(c3ccc(F)cc3)c3ccc(F)cc3)CC2)cc1 (stereo unspecified)
6,1.5,Cc1c(C)c2c(c(C)c1O)CC[C@@](C)(CCC[C@H](C)CCC[C@H](C)CCCC(C)C)O2 [ALPHA-TOCOPHEROL]
7,1.4,COc1cc(NCC(O)CN2CCN(CCCC(c3ccc(F)cc3)c3ccc(F)cc3)CC2)cc(OC)c1OC (stereo unspecified)
